Results on one molecule are retold here after EP0621773B1, “FORMULATION AND USE OF CAROTENOIDS IN TREATMENT OF CANCER” (BOARD OF REGENTS THE UNIVERSITY OF TEXAS SYSTEM, priority 1992, dated 1993).

For one data set, the system named is tissue transglutaminase. Description: Induction of tissue transglutaminase activity in THP-1 cells (marker for monocytic cell differentiation). The class given is cell-based, human. To be noted: 0.3 µg/ml or 0.6 µg/ml, 24 hr.
A short description of another data set: in vivo. To be noted: mouse, in vivo, iv. As to the method:
(§1) The acute toxicity of free and liposomal all-trans retinoic acid was studied in CD1 mice. Free all-trans retinoic acid was prepared as an emulsion in normal saline containing 10% DMSO and 2% Tween 80 at a concentration of 3 to 5 mg/ml. Liposomal all-trans retinoic acid was prepared using a lipid:drug ratio of 15:1. The final concentration of all-trans retinoic acid in the liposomal preparation was 3 mg/ml. Empty liposomes of the same lipid composition (DMPC:DMPG 7:3) were also tested at doses equivalent to 80 mg/kg, 100 mg/kg, and 120 mg/kg of liposomal-all trans retinoic acid. Normal saline containing 10% DMSO and 2% Tween 80 was also tested as a control at a dose equivalent to 50 mg/kg of free all-trans retinoic acid. All drugs tested were injected intravenously via tail vein as a single bolus. The injected volumes of free and liposomal-all-trans retinoic acid were the same for each dose.

Another data set relates to CD1 mice. Description: in vivo. Particulars: for Number Animals with seizures / Number Animals alive (72 hr): CD1, mouse, in vivo, iv. As to the method: as §1
The test system of the next data set is M5076. The data set is described as follows: In vitro sensitivity of M5076 cells to retinoic acid. The class given is cell-based.
Data set [1] deals with human monocytic cell line THP-1. Description: Cell growth inhibition, 72 hr, 96 well microtiter plate. The class given is cell-based. To be noted: concentrations of less than 1 µg RA/ml, 72 hr at 37°C. As to the method:
(§2) Cells of the human monocytic cell line THP-1 and of the human histiocytic cell line U-937 were inoculated at about 20,000 cells per well in aliquots of eucaryotic cell culture medium contained in wells of a 96 well microtiter plate. The medium in various wells contained different amount of free RA or L-RA (DMPC:DMPG 7:3). The cells were incubated for 72 hr at 37°C and cell growth determined and compared to that of controls without any form of retinoic acid. […] At concentrations of less than 1 µg RA/ml, both preparations inhibited cell growth by over 90%.

Data set [2] deals with human histiocytic cell line U-937. Described as above. The data set is classed as cell-based. Particulars: retinoic acid concentration of about 10 ug/ml. As to the method:
as §2
Cells of the human histiocytic cell line U-937 were distributed and cultured under the same conditions as the THP-1 cells in the prior experiment. […] It should be noted that the U-937 cells were almost completely growth-inhibited by L-RA at a retinoic acid concentration of about 10 ug/ml while this amount of free RA inhibited growth less than 50%.

Data set [3] has as its system human red blood cells (RBCs). The data set is described as follows: In vitro lysis of human erythrocytes (hemoglobin release, optical density at 550 nm). The class given is cell-based. As to the method: Lysis of human red blood cells (RBCs) was quantitated by measuring the release of hemoglobin in the supernatants by observation of increases in optical density at 550 nanometers (nm), as described previously (Mehta, et al., Biochem. Biophys, Acta., Vol. 770-, pp 230-234 (1984). Free-RA dissolved in dimethyl formamide (DMFA), was added to the RBCs. Results with appropriate solvent controls, empty liposomes, and empty liposomes plus free-drug were also noted. Release of hemoglobin by hypotonic lysis of the same number of human RBCs by water was taken as a 100% positive control, while cells treated with PBS were taken as negative controls.
Preparations of L-RA comprising various lipids were incubated at a concentration of 20 microgram (µg) RA per ml with RBCs in PBS for 4 hr at 37°C.
A further experiment concerning the toxicity over time of free RA and L-RA (DMPC:DMPG-7:3) toward RBC was conducted. Human erythrocytes were incubated at 37°C in PBS with 10 ug/ml free RA or 120 ug/ml L-RA, and RBC lysis monitored over a period of 5 hr. […] When a similar manipulation was performed with L-RA (DMPC:DMPG(7:3)) at a RA concentration of 120 ug/ml, little RBC lysis occurred (e.g., less than 10% after […]).
A study was also conducted concerning the effects upon RBC lysis in 2 hr of free RA and L-RA (DMPC:DMPG(7:3)) at various concentrations. […]

In data set [4] the test system is human monocytic leukemia THP-1 cells. Description: Morphological change associated with cellular differentiation. The class given is cell-based. Particulars: 0.3 µg RA/ml, 72 hr incubation. As to the method:
The generally ovate form was retained when the cells were cultured in the absence of any free or liposomal retinoic acid.

Another data set concerns THP-1 cells. The data set is described as follows: Tumor formation of in vitro treated THP-1 cells injected subcutaneously into mice. The class given is in vivo. Particulars: cells treated in vitro for 72 hours, injected subcutaneously into male mice.

Structures are written as SMILES.

As for `CC1=C(/C=C/C(C)=C/C=C/C(C)=C/C(=O)O)C(C)(C)CCC1` [Free RA, all-trans retinoic acid], the “tissue transglutaminase enzymic activity” value in the data set with tissue transglutaminase was “increased levels of tissue transglutaminase enzymic activity”. For the same molecule, the LD50 at 72 h in “in vivo” was 32 mg/kg. Moreover, the “Number Animals with seizures” value in the data set on CD1 mice (10 mg/kg) was 0/6; in the data set with CD1 mice (20 mg/kg), 6/6; with CD1 mice (30 mg/kg), 6/6; in the data set on CD1 mice (40 mg/kg) it was 3/3; in the data set on CD1 mice (50 mg/kg), 3/3. Also, the “Number Animals alive (72 hr)” value with CD1 mice (10 mg/kg) is on record as 6/6; in the data set with CD1 mice (20 mg/kg), 5/6; with CD1 mice (30 mg/kg), 4/6; in the data set with CD1 mice (40 mg/kg) it was 0/3; in the data set with CD1 mice (50 mg/kg) it was 0/3. In the data set on CD1 mice (i.v. single bolus, CD1 mice), this molecule gave a maximum non-toxic dose of 10 mg/kg. For the same molecule, in the data set on M5076, the “sensitivity of M5076 cell line in in vitro studies” value is given as “resistant”. Further, the “inhibition of THP-1 cell growth” value in [1] was “over 90%”. The inhibition at 10 µg/mL in data set [2] is less than 50%. Also, the “RBC lysis over time” value in [3] (10 ug/ml, 37°C in PBS, between about 1 hr and about 3 hr) is listed as “extensively lysed a large majority of the erythrocytes”. The “RBC lysis in 2 hr as a function of concentration” value in data set [3] (between about 5 ug RA/ml and about 30 ug RA/ml, 2 hr) is recorded as “linearly increasing RBC lysis”. Further, the “morphological appearance of THP-1 cells” value in [4] is “more flattened and spread morphological appearance”. Moreover, the “tumor development of treated THP-1 cells in mice” value in the data set on THP-1 cells is on record as “failed to develop into tumors”.

As a reminder, the LD50 is the dose at which mortality reaches 50%. Low readings indicate greater toxicity, high ones lower toxicity. As usually defined, the inhibition is the relative decrease from the control value, in per cent.
